The text below walks through data of patent US9708318B2, “Bicyclic heterocycles as FGFR4 inhibitors” (Incyte Corporation, priority 2015, dated 2017).

The target in one experiment is FGFR2 (Homo sapiens (Human), UniProt P21802). The experiment can be described thus: FGFR Enzymatic Assay (FRET peptide phosphorylation), FGFR2. In kind it is biochemical. The method, then: (§1) The inhibitor potency of the exemplified compounds was measured in an enzyme assay that measures peptide phosphorylation using FRET measurements to detect product formation. Inhibitors were serially diluted in DMSO and a volume of 0.5 μL was transferred to the wells of a 384-well plate.
(§2) The enzymes were purchased from Millipore or Invitrogen.
(§3) GraphPad prism3 was used to analyze the data.

Another experiment deals with FGFR1 (Homo sapiens (Human), UniProt P11362). The experiment can be described thus: FGFR Enzymatic Assay (FRET peptide phosphorylation), FGFR1.
Another experiment has as its target FGFR4 (Homo sapiens (Human), UniProt P22455). The experiment in a line: FGFR Enzymatic Assay (FRET peptide phosphorylation), FGFR4. Format: biochemical. The method, then:
as §1, §2, §3

In the next experiment the target is FGFR3 enzyme (Homo sapiens (Human), UniProt P22607). The experiment can be described thus: FGFR Enzymatic Assay (FRET peptide phosphorylation), FGFR3. Format: biochemical. The conditions noted are these: for IC50: read-out: FGFR3 IC50; for FGFR1/FGFR3 IC50 ratio / FGFR4/FGFR3 IC50 ratio: FGFR3 selectivity. As for the experimental part: as §1, §3
The mark [1] stands for this setting: pre-incubated for 5 to 10 minutes.
[2] abbreviates: FGFR1 IC50 (nM), pre-incubated for 4 hours.

Like-named read-outs stand apart in the source and are kept apart here. A value given as a limit tells only on which side of the number the result lay.

Broadly, the IC50 is the midpoint of a concentration-inhibition curve.

Sequence of FGFR1 (P11362 22-822): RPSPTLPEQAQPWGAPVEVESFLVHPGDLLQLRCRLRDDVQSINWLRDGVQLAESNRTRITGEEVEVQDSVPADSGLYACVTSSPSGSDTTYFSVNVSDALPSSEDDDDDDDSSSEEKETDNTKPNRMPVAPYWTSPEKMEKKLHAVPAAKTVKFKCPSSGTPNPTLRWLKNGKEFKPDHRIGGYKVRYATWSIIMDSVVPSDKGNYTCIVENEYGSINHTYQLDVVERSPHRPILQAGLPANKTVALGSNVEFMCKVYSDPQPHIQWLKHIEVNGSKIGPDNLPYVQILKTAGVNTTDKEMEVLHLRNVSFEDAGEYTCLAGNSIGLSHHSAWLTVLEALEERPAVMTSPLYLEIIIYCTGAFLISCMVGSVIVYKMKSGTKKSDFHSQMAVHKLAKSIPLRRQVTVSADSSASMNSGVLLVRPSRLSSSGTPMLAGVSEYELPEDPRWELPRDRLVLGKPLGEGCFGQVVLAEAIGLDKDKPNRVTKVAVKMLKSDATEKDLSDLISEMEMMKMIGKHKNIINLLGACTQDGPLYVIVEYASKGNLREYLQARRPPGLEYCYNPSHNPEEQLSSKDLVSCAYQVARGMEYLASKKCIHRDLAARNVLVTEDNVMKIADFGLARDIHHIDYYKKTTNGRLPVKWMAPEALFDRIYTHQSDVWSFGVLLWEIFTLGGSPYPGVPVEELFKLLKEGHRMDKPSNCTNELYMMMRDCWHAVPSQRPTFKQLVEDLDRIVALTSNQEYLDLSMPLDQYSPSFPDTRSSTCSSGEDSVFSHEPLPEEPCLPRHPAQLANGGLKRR
Sequence of FGFR3 enzyme (P22607 23-806): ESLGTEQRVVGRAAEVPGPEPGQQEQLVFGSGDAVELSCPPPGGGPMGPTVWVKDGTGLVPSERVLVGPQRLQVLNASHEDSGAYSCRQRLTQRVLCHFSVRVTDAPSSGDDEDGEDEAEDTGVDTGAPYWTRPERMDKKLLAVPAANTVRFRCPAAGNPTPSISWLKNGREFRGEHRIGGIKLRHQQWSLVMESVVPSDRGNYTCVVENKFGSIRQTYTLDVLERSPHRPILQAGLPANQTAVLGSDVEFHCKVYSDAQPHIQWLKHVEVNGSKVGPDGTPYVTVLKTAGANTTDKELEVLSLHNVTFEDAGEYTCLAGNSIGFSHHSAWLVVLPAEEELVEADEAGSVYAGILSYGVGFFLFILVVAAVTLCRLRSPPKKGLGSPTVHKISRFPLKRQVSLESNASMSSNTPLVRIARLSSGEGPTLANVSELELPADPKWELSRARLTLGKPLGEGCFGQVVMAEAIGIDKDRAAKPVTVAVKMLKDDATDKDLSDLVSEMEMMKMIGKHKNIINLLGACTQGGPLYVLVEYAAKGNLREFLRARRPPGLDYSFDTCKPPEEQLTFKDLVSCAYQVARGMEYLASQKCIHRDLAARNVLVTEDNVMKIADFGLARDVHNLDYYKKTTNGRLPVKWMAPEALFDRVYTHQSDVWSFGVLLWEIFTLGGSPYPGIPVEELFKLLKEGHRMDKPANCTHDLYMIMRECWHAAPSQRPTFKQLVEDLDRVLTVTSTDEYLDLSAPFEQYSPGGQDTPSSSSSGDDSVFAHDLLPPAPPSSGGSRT
Sequence of FGFR2 (P21802 22-821): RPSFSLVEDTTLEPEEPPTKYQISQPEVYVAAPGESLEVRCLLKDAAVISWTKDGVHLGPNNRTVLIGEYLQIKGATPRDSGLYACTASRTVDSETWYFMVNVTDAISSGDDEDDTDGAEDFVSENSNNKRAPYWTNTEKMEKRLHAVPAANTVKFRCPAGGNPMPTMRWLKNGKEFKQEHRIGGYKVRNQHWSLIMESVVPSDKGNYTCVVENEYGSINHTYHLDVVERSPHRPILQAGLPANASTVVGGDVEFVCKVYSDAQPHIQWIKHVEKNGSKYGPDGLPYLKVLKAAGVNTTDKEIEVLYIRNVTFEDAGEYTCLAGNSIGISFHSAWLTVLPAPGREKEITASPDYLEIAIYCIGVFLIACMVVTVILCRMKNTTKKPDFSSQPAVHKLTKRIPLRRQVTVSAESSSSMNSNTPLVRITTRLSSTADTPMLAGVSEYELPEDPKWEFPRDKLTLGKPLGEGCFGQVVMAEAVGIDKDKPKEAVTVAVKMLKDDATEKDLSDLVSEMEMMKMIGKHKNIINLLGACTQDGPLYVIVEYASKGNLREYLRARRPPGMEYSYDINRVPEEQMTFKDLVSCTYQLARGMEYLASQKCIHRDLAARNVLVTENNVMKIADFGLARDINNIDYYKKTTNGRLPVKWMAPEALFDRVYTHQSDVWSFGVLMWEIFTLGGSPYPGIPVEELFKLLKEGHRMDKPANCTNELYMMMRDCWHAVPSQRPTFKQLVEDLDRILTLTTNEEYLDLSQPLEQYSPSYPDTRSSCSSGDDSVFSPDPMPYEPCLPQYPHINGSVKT
Sequence of FGFR4 (P22455 22-802): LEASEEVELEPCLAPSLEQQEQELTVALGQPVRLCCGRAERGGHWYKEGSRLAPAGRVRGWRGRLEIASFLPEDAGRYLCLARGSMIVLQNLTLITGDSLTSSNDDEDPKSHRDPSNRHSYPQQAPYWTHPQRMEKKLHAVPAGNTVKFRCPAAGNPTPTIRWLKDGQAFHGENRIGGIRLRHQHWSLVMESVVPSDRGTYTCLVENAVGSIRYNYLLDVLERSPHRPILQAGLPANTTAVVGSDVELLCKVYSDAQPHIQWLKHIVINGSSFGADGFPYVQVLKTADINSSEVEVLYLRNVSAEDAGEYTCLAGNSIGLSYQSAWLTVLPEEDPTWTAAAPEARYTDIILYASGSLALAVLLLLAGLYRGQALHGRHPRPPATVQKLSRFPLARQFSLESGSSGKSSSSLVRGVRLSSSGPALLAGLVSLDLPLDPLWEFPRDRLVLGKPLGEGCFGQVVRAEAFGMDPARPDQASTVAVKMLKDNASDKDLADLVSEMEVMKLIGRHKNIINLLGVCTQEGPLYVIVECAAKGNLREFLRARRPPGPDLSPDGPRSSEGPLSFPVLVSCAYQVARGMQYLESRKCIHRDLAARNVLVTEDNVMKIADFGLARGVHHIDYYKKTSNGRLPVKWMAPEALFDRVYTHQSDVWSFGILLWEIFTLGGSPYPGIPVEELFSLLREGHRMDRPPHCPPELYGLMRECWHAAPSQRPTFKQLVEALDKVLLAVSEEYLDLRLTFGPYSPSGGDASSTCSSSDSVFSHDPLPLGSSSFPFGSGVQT

As to `CCOc1cc(CN2C(=O)N(c3c(F)c(OC)cc(OC)c3F)Cc3cnc(-c4cn(C)nc4C)cc32)ccn1` [Example 116, 3-(2,6-difluoro-3,5-dimethoxyphenyl)-7-(1,3-dimethyl-1H-pyrazol-4-yl)-1-((2-ethoxypyridin-4-yl)methyl)-3,4-dihydropyrido[4,3-d]pyrimidin-2(1H)-one], the concentration for half-maximal inhibition (IC50) was below 0.01 µM against FGFR2 (setting [1]); 10 to 30 nM at FGFR1 (FGFR1 IC50 (nM), pre-incubated for 5 to 10 minutes); 0.01 to 0.03 µM against FGFR4 (setting [1]); below 0.01 µM on FGFR3 enzyme (setting [1]).
Regarding `CCN1C(=O)N(c2c(F)c(OC)cc(OC)c2F)Cc2cnc(-c3ccc(C4(C#N)CCC4)cc3)cc21` [Example 181, 1-(4-(3-(2,6-difluoro-3,5-dimethoxyphenyl)-1-ethyl-2-oxo-1,2,3,4-tetrahydropyrido[4,3-d]pyrimidin-7-yl)phenyl)cyclobutanecarbonitrile], the 50% inhibitory concentration (IC50) was below 0.01 µM against FGFR2 (pre-incubated for 4 hours), 30 to 200 nM against FGFR1 (setting [2]), 0.03 to 0.2 µM against FGFR4 (pre-incubated for 4 hours) and below 0.01 µM at FGFR3 enzyme (pre-incubated for 4 hours). Besides, the “FGFR1/FGFR3 IC50 ratio” value on FGFR3 enzyme (pre-incubated for 4 hours) was above 5. For the same compound, the “FGFR4/FGFR3 IC50 ratio” value on FGFR3 enzyme (pre-incubated for 4 hours) is reported as above 10.
With `COc1cc(OC)c(F)c(N2Cc3cnc(-c4cn(C)nc4C)cc3N(c3cnc(C)cn3)C2=O)c1F` [Example 107, 3-(2,6-difluoro-3,5-dimethoxyphenyl)-7-(1,3-dimethyl-1H-pyrazol-4-yl)-1-(5-methylpyrazin-2-yl)-3,4-dihydropyrido[4,3-d]pyrimidin-2(1H)-one], the IC50 on FGFR2 (pre-incubated for 4 hours) is 0.01 to 0.03 µM; at FGFR1 (setting [2]) it was 30 to 200 nM; at FGFR4 (pre-incubated for 4 hours) it was 0.03 to 0.2 µM; on FGFR3 enzyme (pre-incubated for 4 hours) it was 0.01 to 0.03 µM. Moreover, the “FGFR1/FGFR3 IC50 ratio” value on FGFR3 enzyme (pre-incubated for 4 hours) is on record as above 3. In addition, the “FGFR4/FGFR3 IC50 ratio” value at FGFR3 enzyme (pre-incubated for 4 hours) is recorded as above 10.
`CCN1C(=O)N(c2c(F)c(OC)cc(OC)c2F)Cc2cnc(-c3ccc(CN4CC[C@H](C#N)C4)cc3)cc21` [Example 25, (S)-1-(4-(3-(2,6-difluoro-3,5-dimethoxyphenyl)-1-ethyl-2-oxo-1,2,3,4-tetrahydropyrido[4,3-d]pyrimidin-7-yl)benzyl)pyrrolidine-3-carbonitrile]: the IC50 was below 0.01 µM against FGFR2 (pre-incubated for 4 hours), 10 to 30 nM against FGFR1 (setting [2]), 0.01 to 0.03 µM against FGFR4 (pre-incubated for 4 hours) and below 0.01 µM on FGFR3 enzyme (pre-incubated for 4 hours). The “FGFR1/FGFR3 IC50 ratio” value at FGFR3 enzyme (pre-incubated for 4 hours) is recorded as above 5. Moreover, the “FGFR4/FGFR3 IC50 ratio” value at FGFR3 enzyme (pre-incubated for 4 hours) is recorded as above 5.
Consider `COc1cc(OC)c(F)c(N2Cc3cnc(-c4cnn(C)c4)cc3C3(CC3)C2=O)c1F` [Example 186, 2′-(2,6-difluoro-3,5-dimethoxyphenyl)-6′-(1-methyl-1H-pyrazol-4-yl)-1′,2′-dihydro-3′H-spiro[cyclopropane-1,4′-[2,7]naphthyridin]-3′-one], for which the IC50 against FGFR2 (setting [1]) is below 0.01 µM; on FGFR2 (pre-incubated for 4 hours), below 0.01 µM; at FGFR1 (read-out: FGFR1 IC50, pre-incubated for 5 to 10 minutes), below 10 nM; at FGFR1 (read-out: FGFR1 IC50, pre-incubated for 4 hours) it was below 10 nM; on FGFR4 (setting [1]), below 0.01 µM; on FGFR4 (pre-incubated for 4 hours), below 0.01 µM. Moreover, the 50% inhibitory concentration (IC50) on FGFR3 enzyme (setting [1]) and at FGFR3 enzyme (pre-incubated for 4 hours) was below 0.01 µM in each case. The “FGFR1/FGFR3 IC50 ratio” value on FGFR3 enzyme (pre-incubated for 4 hours) is given as above 5. Moreover, the “FGFR4/FGFR3 IC50 ratio” value at FGFR3 enzyme (pre-incubated for 4 hours) is reported as above 5.
Turning to `CCN1C(=O)N(c2c(F)c(OC)cc(OC)c2F)Cc2cnc(-c3ccc(C(C)(C)C#N)nc3)cc21` [Example 26, 2-(5-(3-(2,6-difluoro-3,5-dimethoxyphenyl)-1-ethyl-2-oxo-1,2,3,4-tetrahydropyrido[4,3-d]pyrimidin-7-yl)pyridin-2-yl)-2-methylpropanenitrile], the IC50 is below 0.01 µM on FGFR2 (pre-incubated for 4 hours), 10 to 30 nM at FGFR1 (setting [2]), 0.01 to 0.03 µM on FGFR4 (pre-incubated for 4 hours) and below 0.01 µM at FGFR3 enzyme (pre-incubated for 4 hours). Further, on FGFR3 enzyme (pre-incubated for 4 hours), the “FGFR1/FGFR3 IC50 ratio” value was above 5. At FGFR3 enzyme (pre-incubated for 4 hours), the “FGFR4/FGFR3 IC50 ratio” value is listed as above 5.
As for `COc1cc(OC)c(F)c(N2Cc3cnc(-c4ccncc4)cc3C3(CC3)C2=O)c1F` [Example 185, 2′-(2,6-difluoro-3,5-dimethoxyphenyl)-6′-(pyridin-4-yl)-1′H-spiro[cyclopropane-1,4′-[2,7]naphthyridin]-3′(2′H)-one], the 50% inhibitory concentration (IC50) against FGFR2 (pre-incubated for 4 hours) was below 0.01 µM; at FGFR1 (setting [2]), 10 to 30 nM; on FGFR4 (pre-incubated for 4 hours), 0.01 to 0.03 µM; at FGFR3 enzyme (pre-incubated for 4 hours), below 0.01 µM. Also, at FGFR3 enzyme (pre-incubated for 4 hours), the “FGFR1/FGFR3 IC50 ratio” value is above 3. On FGFR3 enzyme (pre-incubated for 4 hours), the “FGFR4/FGFR3 IC50 ratio” value is recorded as above 3.
In the case of `COc1cc(OC)c(F)c(N2Cc3cnc(-c4cn(C)nc4C)cc3N(c3ccc(C#N)cc3)C2=O)c1F` [Example 44, 4-(3-(2,6-difluoro-3,5-dimethoxyphenyl)-7-(1,3-dimethyl-1H-pyrazol-4-yl)-2-oxo-3,4-dihydropyrido[4,3-d]pyrimidin-1(2H)-yl)benzonitrile], the IC50 on FGFR2 (pre-incubated for 4 hours) was 0.01 to 0.03 µM; against FGFR1 (setting [2]), 30 to 200 nM; on FGFR4 (pre-incubated for 4 hours), 0.03 to 0.2 µM; on FGFR3 enzyme (pre-incubated for 4 hours), below 0.01 µM. Moreover, the “FGFR1/FGFR3 IC50 ratio” value at FGFR3 enzyme (pre-incubated for 4 hours) is above 10. Also, the “FGFR4/FGFR3 IC50 ratio” value at FGFR3 enzyme (pre-incubated for 4 hours) is above 10.
